Several values for one entry are separate records, joined by “and”; a condition that tells them apart may be missing. Identical values can stand only once. Toxic doses and inconclusive results are not listed. Rule for the calls: active = survival T/C of 150% or more; inactive = T/C below 125% in these data.
Test system: P388 leukemia ip, CD2F1 mice, survival T/C
Assay: NCI In Vivo Anticancer Drug Screen. Data for tumor model P388 Leukemia (intraperitoneal) in CD2F1 (CDF1) mice
Settings: endpoint: median survival time, higher = longer survival
In short: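 Mice carrying the transplanted tumor received test compound or vehicle. Survival was recorded in each group, and the value is the treated-group measurement divided by that of the vehicle-treated control group.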

[1] = dose: 50.0 mg/kg/injection, schedule: Q01DX005 (ip), vehicle: Klucel (hydroxypropylcellulose) (HPC)
[2] = dose: 100.0 mg/kg/injection, schedule: Q01DX005 (ip), vehicle: Klucel (hydroxypropylcellulose) (HPC)
[3] = dose: 200.0 mg/kg/injection, schedule: Q01DX005 (ip), vehicle: Klucel (hydroxypropylcellulose) (HPC)
[4] = dose: 50.0 mg/kg/injection, schedule: Q01DX009 (ip), vehicle: Klucel (hydroxypropylcellulose) (HPC)
[5] = dose: 50.0 mg/kg/injection, schedule: Q01DX009 (ip), vehicle: saline
[6] = dose: 100.0 mg/kg/injection, schedule: Q01DX009 (ip), vehicle: saline
[7] = dose: 200.0 mg/kg/injection, schedule: Q01DX009 (ip), vehicle: saline
[8] = dose: 6.25 mg/kg/injection, schedule: Q01DX009 (ip), vehicle: saline
[9] = dose: 12.5 mg/kg/injection, schedule: Q01DX009 (ip), vehicle: saline
[10] = dose: 25.0 mg/kg/injection, schedule: Q01DX009 (ip), vehicle: saline
[11] = dose: 50.0 mg/kg/injection, schedule: Q01DX009 (ip), vehicle: saline with Tween-80
[12] = dose: 100.0 mg/kg/injection, schedule: Q01DX009 (ip), vehicle: saline with Tween-80
[13] = dose: 200.0 mg/kg/injection, schedule: Q01DX009 (ip), vehicle: saline with Tween-80
[14] = dose: 100.0 mg/kg/injection, schedule: Q01DX009 (ip), vehicle: Klucel (hydroxypropylcellulose) (HPC)
[15] = dose: 200.0 mg/kg/injection, schedule: Q01DX009 (ip), vehicle: Klucel (hydroxypropylcellulose) (HPC)

Measured: T/C

O=C1C(=O)C2c3ccccc3C1c1ccccc12
inactive: dose: 50.0 mg/kg/injection, schedule: Q04DX002 (ip), vehicle: suspension in saline 101 % of control | dose: 100.0 mg/kg/injection, schedule: Q04DX002 (ip), vehicle: suspension in saline 106 % of control | dose: 200.0 mg/kg/injection, schedule: Q04DX002 (ip), vehicle: suspension in saline 112 % of control

O=C(Nc1ccc(-c2ccc(NC(=O)C34CC5CC(CC(C5)C3)C4)cc2)cc1)C12CC3CC(CC(C3)C1)C2
inactive: dose: 25.0 mg/kg/injection, schedule: Q01DX005 (ip), vehicle: Klucel (hydroxypropylcellulose) (HPC) 98 % of control and 100 % of control | [1] 101 % of control | [2] 89 % of control and 92 % of control | [3] 97 % of control

COC(=O)C1C2C1C1C=CC2n2c(=O)n(-c3ccccc3)c(=O)n21 (configuration not stated)
inactive: [1] 97 % of control | [2] 97 % of control | [3] 110 % of control

Nc1ccn(C2OC(COP(=O)(O)O)C(O)C2O)c(=O)n1 (configuration not stated) (tested in a mixture with another compound)
inactive: dose: 60.0 mg/kg/injection, schedule: Q01DX005 (ip), vehicle: Klucel (hydroxypropylcellulose) (HPC) 108 % of control | dose: 120.0 mg/kg/injection, schedule: Q01DX005 (ip), vehicle: Klucel (hydroxypropylcellulose) (HPC) 99 % of control | dose: 240.0 mg/kg/injection, schedule: Q01DX005 (ip), vehicle: Klucel (hydroxypropylcellulose) (HPC) 99 % of control

CSc1cccc(NC(=O)Nc2onc(C)c2C)c1
inactive: [4] 91 % of control

NC(=S)c1ccc(N=Cc2ccco2)cc1
inactive: dose: 100.0 mg/kg/injection, schedule: Q01DX001 (ip), vehicle: Klucel (hydroxypropylcellulose) (HPC) 102 % of control | dose: 200.0 mg/kg/injection, schedule: Q01DX001 (ip), vehicle: Klucel (hydroxypropylcellulose) (HPC) 104 % of control | dose: 400.0 mg/kg/injection, schedule: Q01DX001 (ip), vehicle: Klucel (hydroxypropylcellulose) (HPC) 105 % of control

CCCCC(CC)CSCN(CC)CC (configuration not stated)
inactive: [5] 100 % of control | [6] 102 % of control | [7] 112 % of control

COc1ccccc1C1N(C)CCCN1C
inactive: [8] 95 % of control | [9] 95 % of control | [10] 100 % of control

CC(C)NC1CCC(Nc2ccnc3cc(Cl)ccc23)CC1 (configuration not stated)
inactive: [1] 98 % of control | [2] 97 % of control

COc1cc(C(=O)OC(C)CC2(c3ccccc3)C(=O)NC(=O)NC2=O)cc(OC)c1OC (configuration not stated)
inactive: [11] 90 % of control | [12] 90 % of control

CCOc1ccc(Nc2nc(C(Cl)(Cl)Cl)cc(C(Cl)(Cl)Cl)n2)cc1CN(CC)CC
inactive: dose: 6.25 mg/kg/injection, schedule: Q01DX009 (ip), vehicle: saline sonified 100 % of control | dose: 12.5 mg/kg/injection, schedule: Q01DX009 (ip), vehicle: saline sonified 100 % of control | dose: 25.0 mg/kg/injection, schedule: Q01DX009 (ip), vehicle: saline sonified 100 % of control

Cc1c(N)nc(C(CC(N)=O)NCC(N)C(N)=O)nc1C(=O)NC(C(=O)NC(C)C(O)CC(=O)NC(C(=O)NC(OC1OC(C)C(N)C(O)C1O)C(O)c1nc(-c2nc(C(=O)NCCCC(N)CC(=O)NCCCNCCCCN)cs2)cs1)C(C)O)C(OC1OC(CO)C(O)C(O)C1OC1OC(CO)C(O)C(OC(N)=O)C1O)c1cnc[nH]1 (configuration not stated)
inactive: dose: 0.5 mg/kg/injection, schedule: Q01DX009 (ip), vehicle: water 106 % of control | dose: 0.8 mg/kg/injection, schedule: Q01DX009 (ip), vehicle: water 113 % of control and 119 % of control | dose: 1.0 mg/kg/injection, schedule: Q01DX009 (ip), vehicle: water 113 % of control | dose: 1.3 mg/kg/injection, schedule: Q01DX009 (ip), vehicle: water 113 % of control and 97 % of control | dose: 2.0 mg/kg/injection, schedule: Q01DX009 (ip), vehicle: water 113 % of control | dose: 2.2 mg/kg/injection, schedule: Q01DX009 (ip), vehicle: water 111 % of control and 87 % of control | dose: 3.6 mg/kg/injection, schedule: Q01DX009 (ip), vehicle: water 92 % of control

CCCCCCCCCCCCCOC(=O)c1ccc(O)cc1
inactive: [11] 98 % of control | [12] 94 % of control | [13] 88 % of control

COC1CC23OC2(C1)C1C=CC3N(C(=O)OCC(Cl)(Cl)Cl)N1C(=O)OCC(Cl)(Cl)Cl (configuration not stated)
inactive: [1] 102 % of control | [2] 105 % of control | [3] 102 % of control

C=C/[Se](=C(/C#N)C(=O)c1ccccc1)c1ccccc1 (configuration not stated)
inactive: [8] 99 % of control | [9] 99 % of control | [10] 89 % of control

COc1cc2c(C)c[n+]3cc4cc5c(OC)c(OC)ccc5cc4cc3c2cc1OC (tested in a mixture with another compound)
inactive: dose: 3.13 mg/kg/injection, schedule: Q04DX003 (ip), vehicle: distilled water + Tween-80 117 % of control | dose: 6.25 mg/kg/injection, schedule: Q04DX003 (ip), vehicle: distilled water + Tween-80 117 % of control | dose: 12.5 mg/kg/injection, schedule: Q04DX003 (ip), vehicle: distilled water + Tween-80 111 % of control | dose: 25.0 mg/kg/injection, schedule: Q04DX003 (ip), vehicle: distilled water + Tween-80 99 % of control

COc1cccc2c1C(=O)c1c(O)c3c(c(O)c1C2=O)CC(O)(C(=O)C(C)C)CC3OC1CC(N)C(O)C(C)O1 (configuration not stated)
inactive: dose: 3.13 mg/kg/injection, schedule: Q01DX009 (ip), vehicle: water 117 % of control | dose: 4.7 mg/kg/injection, schedule: Q04DX003 (ip), vehicle: water 115 % of control | dose: 6.25 mg/kg/injection, schedule: Q01DX009 (ip), vehicle: water 117 % of control | dose: 9.4 mg/kg/injection, schedule: Q04DX003 (ip), vehicle: water 110 % of control | dose: 18.8 mg/kg/injection, schedule: Q04DX003 (ip), vehicle: water 101 % of control | dose: 75.0 mg/kg/injection, schedule: Q04DX003 (ip), vehicle: water 92 % of control

O=C(Nc1cccc(Cl)c1Cl)Oc1ccc(Cl)cc1C(=O)c1ccccc1
inactive: [5] 94 % of control | [6] 89 % of control | [7] 99 % of control

OP12(OC(C(F)(F)F)(C(F)(F)F)c3ccccc31)OC(C(F)(F)F)(C(F)(F)F)c1ccccc12
inactive: dose: 100.0 mg/kg/injection, schedule: Q04DX002 (ip), vehicle: Klucel (hydroxypropylcellulose) (HPC) 97 % of control | dose: 200.0 mg/kg/injection, schedule: Q04DX002 (ip), vehicle: Klucel (hydroxypropylcellulose) (HPC) 98 % of control

CCCCCCC(=O)Nc1ncc([N+](=O)[O-])s1
inactive: [4] 106 % of control | [14] 106 % of control | [15] 100 % of control

BrCCC[P+](c1ccccc1)(c1ccccc1)c1ccccc1
inactive: dose: 8.25 mg/kg/injection, schedule: Q01DX009 (ip), vehicle: saline with Tween-80 116 % of control | dose: 12.5 mg/kg/injection, schedule: Q01DX009 (ip), vehicle: saline with Tween-80 116 % of control

FC(F)(F)c1cccc(N=Cc2ccc(C=Nc3cccc(C(F)(F)F)c3)cc2)c1
inactive: [5] 99 % of control | [6] 99 % of control | [7] 97 % of control

CCc1cccc2c3c([nH]c12)C(CC)(CC(=O)O)OCC3 (configuration not stated)
inactive: [4] 102 % of control | [14] 110 % of control | [15] 107 % of control

Cc1ccc(CCn2c3c(c4cc(Cl)ccc42)CN(C)CC3)cn1
inactive: [5] 99 % of control | [6] 102 % of control

C=C1C[C@H](O)[C@H]2C(C[Se]c3ccccc3)C(=O)O[C@@H]2[C@H]2[C@H](C)C(=O)C[C@@H]12 (some centres not stated)
inactive: dose: 60.0 mg/kg/injection, schedule: Q01DX005 (ip), vehicle: saline with Tween-80 97 % of control | dose: 120.0 mg/kg/injection, schedule: Q01DX005 (ip), vehicle: saline with Tween-80 95 % of control | dose: 240.0 mg/kg/injection, schedule: Q01DX005 (ip), vehicle: saline with Tween-80 92 % of control

CCC(C)(C)C(=O)O
inactive: [12] 100 % of control | [13] 100 % of control

FC(F)(F)c1nc2nc(Cl)c(Cl)nc2[nH]1
inactive: dose: 25.0 mg/kg/injection, schedule: Q04DX003 (ip), vehicle: other 100 % of control | dose: 50.0 mg/kg/injection, schedule: Q04DX003 (ip), vehicle: other 109 % of control

C=C1CC2CCC1C2 (configuration not stated)
inactive: dose: 25.0 mg/kg/injection, schedule: Q01DX009 (ip), vehicle: saline with Tween-80 100 % of control | dose: 25.0 mg/kg/injection, schedule: Q04DX003 (ip), vehicle: saline with Tween-80 104 % of control | [11] 100 % of control | dose: 50.0 mg/kg/injection, schedule: Q04DX003 (ip), vehicle: saline with Tween-80 104 % of control | [12] 100 % of control | dose: 100.0 mg/kg/injection, schedule: Q04DX003 (ip), vehicle: saline with Tween-80 100 % of control
